Earlier results, collected in patent US20150111372A1 (priority 2013, published 2015).
Where two headings read alike, the source gives them in different places.

Key:
livers of chickens = settings: in vivo

Compound	Solubility, Water (pH 2)	Solubility, Water (pH 5)	levels of arsenic in the livers of chickens (livers of chickens)
O=C(O)CNCP(=O)(O)O [N-(phosphonomethyl)glycine), N-(phosphonomethyl)glycine]	pH 2: 10 g/L	pH 5-9: 1 kg/L	
O=[N+]([O-])c1cc([As](=O)(O)O)ccc1O [Roxarsone, 4-Hydroxy-3-nitrobenzenearsonic acid]			elevated (but 'very low') levels
